Results from patent US20170280720A1, “ARGININE […] INHIBITORS AND USES THEREOF” (EPIZYME, INC., priority 2014, published 2017).

Legend:
Human CARM1 (PRMT4) = target: T1, Human CARM1 (PRMT4) (Homo sapiens, UniProt Q86X55); experiment: CARM1 biochemical assay (3H-SAM Flashplate, peptide substrate); details: read-out: CARM1_ IC50
T1 construct: Flag-CARM1-His; made in house; host or cells: HEK 293F cells (BacMam baculovirus, pFastBacMam)
T1 sequence (Q86X55 2-585 isoform Q86X55-1): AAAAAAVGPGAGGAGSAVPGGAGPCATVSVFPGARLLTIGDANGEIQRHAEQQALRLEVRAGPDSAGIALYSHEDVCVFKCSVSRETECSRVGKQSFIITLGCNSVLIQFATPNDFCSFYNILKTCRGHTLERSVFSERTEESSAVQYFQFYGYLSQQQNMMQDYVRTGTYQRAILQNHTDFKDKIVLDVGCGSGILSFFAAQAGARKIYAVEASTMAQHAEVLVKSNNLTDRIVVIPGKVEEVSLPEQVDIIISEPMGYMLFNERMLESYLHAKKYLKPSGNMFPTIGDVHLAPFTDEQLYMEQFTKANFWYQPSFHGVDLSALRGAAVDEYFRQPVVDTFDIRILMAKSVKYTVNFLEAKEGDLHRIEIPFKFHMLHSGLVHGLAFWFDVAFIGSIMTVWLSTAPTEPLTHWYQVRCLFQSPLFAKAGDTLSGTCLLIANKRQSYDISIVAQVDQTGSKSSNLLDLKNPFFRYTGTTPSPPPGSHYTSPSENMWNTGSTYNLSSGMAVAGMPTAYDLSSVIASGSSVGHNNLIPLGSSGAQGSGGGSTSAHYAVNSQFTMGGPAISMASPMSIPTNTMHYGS
Source text: S-adenosylmethionine (SAM), S-adenosylhomocysteine (SAH), bicine, Tween20, dimethylsulfoxide (DMSO), bovine skin gelatin (BSG), sodium butyrate and Tris(2-carboxyethyl)phosphine hydrochloride solution (TCEP) were purchased from Sigma-Aldrich at the highest level of purity possible. ^3H-SAM was purchase from American Radiolabeled Chemicals with a specific activity of 80 Ci/mmol. 384-well streptavidin Flashplates were purchased from PerkinElmer.
Peptide representative of human histone H3 residues 16-30 was synthesized with an N-terminal linker-affinity tag motif and a C-terminal amide cap by 21st Century Biochemicals. The peptide was purified by high-performance liquid chromatography (HPLC) to greater than 95% purity and confirmed by liquid chromatography mass spectrometry (LC-MS). The sequence was Biot-Ahx-[…]-amide and contained a monomethylated arginine at position 26 (SEQ ID NO.: 14).
Human CARM1 (PRMT4) (NM_199141.1) transcript clone was amplified from an HEK 293 cDNA library, incorporating a flanking 5′ sequence encoding a FLAG tag ([…]) (SEQ ID NO.: 6) fused directly to Ala 2 of CARM1 and 3′ sequence encoding a hexa His sequence ([…]) (SEQ ID NO.: 15) fused directly to Ser 608. The gene sequence encoding isoform1 containing a deletion of amino acids 539-561 was amplified subsequently and subcloned into pFastBacMam (Viva Biotech).
Recombinant baculovirus were generated according to Bac-to-Bac kit instructions (Life Technologies). […] Infections were carried out at 37° C. for 48 hours, harvested by centrifugation, and stored at −80° C. for purification.
Column was washed with 500 mM NaCl in buffer A and Flag-CARM1-His was eluted with 200 ug/ml FLAG peptide in buffer A. Pooled fractions were dialyzed in 20 mM Tris, 150 mM NaCl, 5% glycerol and 1 mM DTT, pH 7.8. The purity of recovered protein was 94.
General Procedure for CARM1 Enzyme Assays on Peptide Substrates.
The assays were all performed in a buffer consisting of 20 mM Bicine (pH=7.6), 1 mM TCEP, 0.005% BSG, and 0.002% Tween 20, prepared on the day of use. Compounds in 100% DMSO (1 ul) were spotted into a polypropylene 384-well V-bottom plates (Greiner) using a Platemate Plus outfitted with a 384-channel head (Thermo Scientific). DMSO (1 ul) was added to Columns 11, 12, 23, 24, rows A-H for the maximum signal control and 1 ul of SAH, a known product and inhibitor of CARM1, was added to columns 11, 12, 23, 24, rows I-P for the minimum signal control. A cocktail (40 ul) containing the CARM1 enzyme was added by Multidrop Combi (Thermo-Fisher). The compounds were allowed to incubate with CARM1 for 30 min at room temperature, then a cocktail (10 ul) containing ^3H-SAM and peptide was added to initiate the reaction (final volume=51 ul). The final concentrations of the components were as follows: CARM1 was 0.25 nM, ^3H-SAM was 30 nM, peptide was 250 nM, SAH in the minimum signal control wells was 1 mM, and the DMSO concentration was 2%. The assays were stopped by the addition of non-radiolabeled SAM (10 ul) to a final concentration of 300 uM, which dilutes the ^3H-SAM to a level where its incorporation into the peptide substrate is no longer detectable. 50 ul of the reaction in the 384-well polypropylene plate was then transferred to a 384-well Flashplate and the biotinylated peptides were allowed to bind to the streptavidin surface for at least 1 hour before being washed once with 0.1% Tween20 in a Biotek ELx405 plate washer. The plates were then read in a PerkinElmer TopCount plate reader to measure the quantity of ^3H-labeled peptide bound to the Flashplate surface, measured as disintegrations per minute (dpm) or alternatively, referred to as counts per minute (cpm).
Where dpm=disintegrations per minute, cmpd=signal in assay well, and min and max are the respective minimum and maximum signal controls.
Where top and bottom are the normally allowed to float, but may be fixed at 100 or 0 respectively in a 3-parameter fit. […]

[1] = system: asymmetric di-methyl PABP1 in RKO cells; experiment: In Cell Western (ICW) for asymmetric di-methyl PABP1 and DNA content in RKO cells; assay type: cell-based; details: Homo sapiens, RKO, In Cell Western
Source text: RKO adherent cells were purchased from ATCC (American Type Culture Collection), Manassas, Va., USA. DMEM/Glutamax medium, penicillin-streptomycin, heat inactivated fetal bovine serum, 0.05% trypsin and D-PBS were purchased from Life Technologies, Grand Island, N.Y., USA. Odyssey blocking buffer, 800CW goat anti-rabbit IgG (H+L) antibody, and Licor Odyssey infrared scanner were purchased from Licor Biosciences, Lincoln, Nebr., USA. Mono-methyl arginine antibody was purchased from Cell Signaling Technology, Danvers, Mass., USA. Methanol was purchased from VWR, Franklin, Mass., USA. 10% Tween 20 was purchased from KPL, Inc., Gaithersburg, Md., USA. […] was purchased from Biostatus Limited, Leicestershire, UK. RKO adherent cells were maintained in growth medium (DMEM/Glutamax medium supplemented with 10% v/v heat inactivated fetal bovine serum and 100 units/mL penicillin-streptomycin) and cultured at 37° C. under 5% CO2. Cell Treatment, in Cell Western (ICW) for Detection of Asymmetric Di-Methyl PABP1 and DNA Content. RKO cells were seeded in assay medium at a concentration of 30,000 cells per mL to a poly-D-lysine coated 384 well culture plate (BD Biosciences 356697) with 50 μL per well. Compound (100 nL) from a 96-well source plate was added directly to 384 well cell plate. Plates were incubated at 37° C., 5% CO2 for 48 hours. After two days of incubation, plates were brought to room temperature outside of the incubator for ten minutes and blotted on paper towels to remove cell media. Cells were fixed for 20 minutes at room temperature by adding 50 μl of 8% PFA followed by aspiration of supernatant with the Biotek EL406 plate washer. Cells were then permeabilized by addition of 50 μL of ice cold 100% methanol directly to each well and incubated for 30 min at room temperature. After 30 min, plates were transferred to a Biotek EL406 plate washer and washed 2 times with 100 μL per well of wash buffer (1×PBS). Next 60 μL per well of Odyssey blocking buffer (Odyssey Buffer with 0.1% Tween 20 (v/v)) were added to each plate and incubated 1 hour at room temperature. Blocking buffer was removed and 20 μL per well of primary antibody was added (asymmetric-methyl PABP1) diluted 1:400 in Odyssey buffer with 0.1% Tween 20 (v/v)) and plates were incubated overnight (16 hours) at 4° C. Plates were washed 5 times with 100 μL per well of wash buffer. Next 20 μL per well of secondary antibody was added (1:800 800CW goat anti-rabbit IgG (H+L) antibody, 1:2000 DRAQS in Odyssey buffer with 0.1% Tween 20 (v/v)) and incubated for 1 hour at room temperature. The plates were washed 5 times with 100 μL per well wash buffer then 2 times with 100 μL per well of water. Plates were allowed to dry at room temperature then imaged on the Licor Odyssey machine which measures integrated intensity at 700 nm and 800 nm wavelengths. Both 700 and 800 channels were scanned. Calculations: First, the ratio for each well was determined by: Each plate included fourteen control wells of DMSO only treatment (minimum inhibition) as well as fourteen control wells for maximum inhibition treated with 20 μM of a reference compound. The average of the ratio values for each control type was calculated and used to determine the percent activation for each test well in the plate. Reference compound was serially diluted three-fold in DMSO for a total of nine test concentrations, beginning at 20 μM. Percent inhibition was determined and IC50 curves were generated using triplicate wells per concentration of compound.

SMILES	IC50 (Human CARM1 (PRMT4)) [nM]	IC50 [1] [nM]
CNCCN(C)Cc1cccc(-c2cc(C(=O)NCc3nccn3C)c3cnn(C(C)C)c3n2)c1 [Compound 212]	24.9	1800
CNCCN(C)Cc1cccc(-c2cc(N3CCCC3)c3cnn(C(C)C)c3n2)c1 [Compound 214]	26.6	20000
CC(C)n1ncc2c(C(=O)NCc3nccn3C)cc(-c3cccc(CN(C)CCN)c3)nc21 [Compound 215]	29.1	2240
CN(CCN)Cc1cccc(-c2cc(C(=O)NC3CCOCC3)cc(N(C)CC3CC3)c2)c1 [Compound 217]	30	5690
CC(C)n1ncc2c(C(=O)NCc3ccn(C)n3)cc(-c3cccc(CN(C)CCN)c3)nc21 [Compound 220]	32.5	1240
CC(C)n1ncc2c(C(=O)NCC(F)(F)F)cc(-c3cccc(CN(C)CCN)c3)nc21 [Compound 222]	34.4	3820
CNCCN(C)Cc1cccc(-c2cc(C(=O)NCc3cn(C)cn3)c3cnn(C(C)C)c3n2)c1 [Compound 223]	35.3	3470
CC(C)n1ncc2c(C(=O)N(C)Cc3cccnc3)cc(-c3cccc(CN(C)CCN)c3)nc21 [Compound 224]	37.5	8470
CCn1ncc2c(C(=O)NCC3CCOCC3)cc(-c3cccc(CN(C)CCNC)c3)nc21 [Compound 227]	39.9	4740
CNCCN(C)Cc1cccc(-c2cc(C(=O)NC3CC3)c3cnn(C(C)C)c3n2)c1 [Compound 228]	41.2	1910
CCN(C)C(=O)c1cc(-c2cccc(CN(C)CCN)c2)nc2c1cnn2C(C)C [Compound 230]	41.4	7630
CNCCN(C)Cc1cccc(-c2cc(C(=O)NCc3cnc[nH]3)c3cnn(C(C)C)c3n2)c1 [Compound 231]	42.2	20000
CNCCN(C)Cc1cccc(-c2cc(C(=O)NCc3cccc4ccnn34)c3cnn(C(C)C)c3n2)c1 [Compound 232]	42.4	1510
CNCCN(C)Cc1cccc(-c2cc(C(=O)NC3CCOCC3)c3cnn(C(C)C)c3n2)c1 [Compound 233, 1-isopropyl-6-(3-((methyl(2-(methylamino)ethyl)amino)methyl)phenyl)-N-(tetrahydro-2H-pyran-4-yl)-1H-pyrazolo[3,4-b]pyridine-4-carboxamide]	42.6	843
CNCCN(C)Cc1cccc(-c2cc(C(=O)NC3CCOC3)c3cnn(C(C)C)c3n2)c1 (stereo not shown) [Compound 234]	43.3	2760
CNCCN(C)Cc1cccc(-c2cc(-c3ccsc3)c3cnn(C(C)C)c3n2)c1 [Compound 235]	45.8	20000
CC(C)n1ncc2c(C(=O)N(C)Cc3ccccc3)cc(-c3cccc(CNCCN)c3)nc21 [Compound 238]	48.1	20000
CCCc1cc(-c2cccc(CN(C)CCNC)c2)nc2c1cnn2C(C)C [Compound 239]	49	20000
Cc1c(N(C)CC2CC2)cc(-c2cccc(CN(C)CCN)c2)cc1N1CCOCC1 [Compound 241]	51	5690
Cc1c(C(=O)NC2CCOCC2)cc(-c2cccc(CN(C)CCN)c2)cc1N(C)CC1CC1 [Compound 243]	52	20000
CN(CCN)Cc1cccc(-c2ccc(C(=O)NC3CCOCC3)c(N(C)CC3CC3)c2)c1 [Compound 245]	53.6	20000
CNCCN(C)Cc1cccc(-c2cc(-c3ccc(O)cc3)c3cnn(C(C)C)c3n2)c1 [Compound 247]	54.7	20000
CNCCN(C)Cc1cccc(-c2cc(C(=O)N3CCC3)c3cnn(C(C)C)c3n2)c1 [Compound 252]	59.3	20000
CCn1ncc2c(C(=O)NC3CCOCC3)cc(-c3cccc(CN(C)CCNC)c3)nc21 [Compound 253]	61.3	6090
CCN(Cc1cccnc1)C(=O)c1cc(-c2cccc(CN(C)CCNC)c2)nc2c1cnn2C(C)C [Compound 254]	61.8	5520
CCNC(=O)c1cc(-c2cccc(CN(C)CCNC)c2)nc2c1cnn2C(C)C [Compound 255]	62.3	3870
